Measured values taken from patent US12012413B2, “Methods of treating painful diabetic peripheral neuropathy” (Tenacia Biotechnology (Hong Kong) Co., Limited, priority 2019, dated 2024).
In brackets after ≈: the same amount, converted by molar mass. Read-outs that look alike come from different tables or passages of the source.

Key:
[1] = Solid form conversion / physical stability (XRPD); assay type: physicochemical; settings: for form conversion in suspension: isopropanol, ethyl acetate, or isopropyl acetate
Method: X-ray powder diffraction (XRPD) analysis was carried out on a Stoe Stadi P with Mythen1K detector; Cu-Kα1 radiation; 40 kV and 40 mA tube power; curved Ge monochromator; 0.02° 2θ step size, 12 s step time, 1.5-50.5° 2θ scanning range; detector mode: step scan; 1° 2θ detector step. The sample (about 20 mg) was placed between two acetate foils and clamped in a Stoe transmission sample holder. The sample holder was rotated during the measurement.
X-ray powder diffraction (XRPD) analysis was also carried out on a on a Bruker D8 Advance; Cu-Kα radiation; standard measurement conditions: Bragg-Brentano reflection geometry; 40 kV and 40 mA tube power; LynxEye detector; 0.02° 2θ step size, 37 s step time, 2.5-50.5° 2θ scanning range (about 10 min measurement time. The sample was spread on a silicon single crystal substrate without cavity and flattened to fit to the 0.1 mm depth of the sample holder.
Crystalline, anhydrous Form C material of 3-hydroxy-2-(5-isobutyryl-1-oxo-2,5-diazaspiro[3.4]octan-2-yl)butanamide is not stable in comparison to anhydrous Form A or anhydrous Form B under ambient conditions of temperature and humidity. […] In turn, anhydrous Form A and anhydrous Form B each convert to monohydrate Form MH under the conditions described above.

[2] = Solubility of anhydrous crystalline forms in water and isopropyl acetate at room temperature; assay type: physicochemical
[3] = test system: neuropathic pain associated with diabetic peripheral neuropathy; assay: Randomized, double-blind, placebo-controlled multiple-dose study in subjects with neuropathic pain associated with diabetic peripheral neuropathy; assay type: in vivo, human
Method: A randomized, double-blind, parallel-group, placebo-controlled, multiple-dose study was conducted to assess the efficacy and safety of NYX-2925 in subjects with neuropathic pain associated with diabetic peripheral neuropathy. The study was to evaluate the efficacy of multiple dose levels of NYX-2925 versus placebo in treating the neuropathic pain associated with diabetic peripheral neuropathy. The study was also to assess the effects of multiple dose levels of NYX-2925 versus placebo on pain characteristics, sleep interference, health status, psychological state, and global improvement, and to assess the safety and tolerability of multiple dose levels of NYX-2925. The study was a 6- to 9-week study, including a 1- to 4-week Screening Period, followed by a 4-week double-blind, randomized, placebo-controlled Treatment Period, and a 1-week Follow-Up Period. Subjects with Type 2 diabetes who had been on stable antidiabetic medication for at least 1 month (or had stable glycemic control with diet and exercise alone) and who had been suffering from painful diabetic peripheral neuropathy in the lower extremities for at least 6 months but not more than 10 years were screened for diabetic peripheral neuropathy using the Michigan Neuropathy Screening Instrument and the Masquerading Disorders Tool. […] Subjects were dispensed acetaminophen to be used as rescue medication, and were instructed to take no more than 2 g/daily (one to two 500-mg caplets every 4 to 6 hours as needed) for DPN pain. Beginning immediately after Visit 1, pain intensity and rescue medication use were recorded in the study-issued handheld device daily at bedtime. Subjects entered their average pain intensity, worst pain intensity, pain on walking, and whether rescue medication was used during the past 24 hours. Pain intensity was recorded using an 11-point NRS, with 0 being no pain and 10 being the worst pain imaginable. Every morning upon awakening, subjects completed the Daily Sleep Interference Scale (DSIS) via their study-issued handheld device. Eligible subjects were randomized to receive either NYX-2925 10 mg daily, NYX-2925 50 mg daily, NYX-2925 200 mg daily, or placebo for 4 weeks in a 1:1:1:1 allocation. Investigators and subjects were masked to the randomization allocation. Subjects were dispensed a 2-week supply of investigational product and instructed to take 2 capsules by mouth once daily. Subjects were also re-dispensed acetaminophen to use as rescue medication for DPN pain; instructions not to exceed 2 g/day were reinforced. The appropriate use of rescue medication was assessed by inventory of the returned caplets, as well as by subject interview. Subjects were instructed to continue entering their average pain intensity, worst pain intensity, pain upon walking, and whether they used rescue medication over the past 24 hours into their study-issued handheld devices every night. Every morning upon awakening, subjects completed the DSIS via their study-issued handheld device. Pain diary compliance was reviewed at each study visit by the study staff, and reporting instructions was reinforced. Quantitative sensory testing was done using the Bedside Sensory Testing Kit. The following scales were completed at the Baseline Visit: Brief Pain Inventory for Diabetic Peripheral Neuropathy (BPI-DPN), the Short-Form McGill Pain Questionnaire version 2 (SF-MPQ-2), the Norfolk Quality of Life Questionnaire-Diabetic Neuropathy (QOL-DN), the HADS, the Insomnia Severity Index, and the S-STS. Subjects returned to the clinic at the end of Week 2 for assessment of compliance with study medication, use of rescue medication, and were dispensed the final 2-week supply of investigational product and rescue medication for DPN pain. Pain diary compliance was reviewed by the study staff, and reporting instructions were reinforced. Adverse events were assessed by asking the subjects a non-leading question. Use of concomitant medications was documented. […]

[4] = 10, 50 or 200 mg by mouth once daily for 4 weeks
[5] = advanced DPN (at least 4 years)
[6] = patients with at least 4 years of DPN duration

CC(C)C(=O)N1CCCC12CN(C(C(N)=O)C(C)O)C2=O (centres unmarked) [3-hydroxy-2-(5-isobutyryl-1-oxo-2,5-diazaspiro[3.4]octan-2-yl)butanamide]
physical stability on storage (XRPD) ([1]; about six weeks in a sealed vial at −20° C.): did not crystallize

CC(C)C(=O)N1CCCC12CN(C(C(N)=O)C(C)O)C2=O (centres unmarked) [Form A, 3-hydroxy-2-(5-isobutyryl-1-oxo-2,5-diazaspiro[3.4]octan-2-yl)butanamide]
solubility in isopropyl acetate ([2]; after 10 minutes, 1 hour, and 6 hours at room temperature): about 8 mg/mL | solubility ([2]; isopropyl acetate, 22 °C, organic solvent or mixture, room temperature (about 22° C.), read-out: solubility in isopropyl acetate): ~8 mg/mL (≈ 26.9 mM) | solubility ([2]; water, 22 °C, water, room temperature (about 22° C.), read-out: solubility in water): 54 to 55 mg/mL (≈ 182 to 185 mM) | time to convert to the monohydrate Form MH in the solid phase ([1]; ambient temperature, atmosphere of greater than 5% relative humidity): ≤ 3 days

CC(C)C(=O)N1CCCC12CN(C(C(N)=O)C(C)O)C2=O (centres unmarked) [Form B, 3-hydroxy-2-(5-isobutyryl-1-oxo-2,5-diazaspiro[3.4]octan-2-yl)butanamide]
solubility ([2]; isopropyl acetate, organic solvent or mixture, after 10 minutes, 1 hour, and 6 hours at room temperature, read-out: solubility in isopropyl acetate): ~9 mg/mL (≈ 30.3 mM) | solubility at 10 min ([2]; water, after 10 minutes at room temperature): ~54 mg/mL (≈ 182 mM) | solubility at 1 h ([2]; water, after 1 hour at room temperature): ~54 mg/mL (≈ 182 mM) | solubility at 6 h ([2]; water, after 6 hours at room temperature): ~48 mg/mL (≈ 161 mM) | conversion to the monohydrate Form MH in the solid state ([1]; ambient temperature, atmosphere of greater than or equal to 50% relative humidity): readily converts to the monohydrate Form MH

CC(C)C(=O)N1CCCC12CN(C(C(N)=O)C(C)O)C2=O (centres unmarked) [Form C, 3-hydroxy-2-(5-isobutyryl-1-oxo-2,5-diazaspiro[3.4]octan-2-yl)butanamide]
stability in comparison to anhydrous Form A or anhydrous Form B ([1]; ambient conditions of temperature and humidity): not stable | form conversion in suspension ([1]; temperatures greater than or equal to 75° C.): converts to anhydrous Form B | form conversion in suspension ([1]; temperatures less than or equal to 50° C.): converts to anhydrous Form A

CC(C)C(=O)N1CCC[C@]12CN([C@H](C(N)=O)[C@@H](C)O)C2=O [NYX-2925, (2S,3R)-3-hydroxy-2-((R)-5-isobutyryl-1-oxo-2,5-diazaspiro[3.4]octan-2-yl)butanamide]
change in daily sleep interference score from baseline ([3]; 50 mg dose, advanced DPN (at least 4 years), at least at the 2, 3 and 4 week points): Statistical significance | change in average pain (NRS) from baseline ([3]; 50 mg dose, advanced DPN (at least 4 years), at least at the 3 and 4 week points): Statistical significance | change from placebo in average daily pain, baseline to week 4, by duration of painful DPN ([3]; 50 mg dose, groups ≥1 to ≥5 yrs): most significant at ≥4 years | Week 4 change vs. baseline in average daily pain (on 10-point NRS) ([3]; 50 mg once daily, patients with advanced DPN): 1.93 points | Week 4 change vs. placebo in average daily pain (on 10-point NRS) ([3]; 50 mg once daily, patients with advanced DPN, p=0.004): 1.21 points | separation from placebo by dose ([3]; 200 mg and 50 mg doses): meaningful separation from placebo | shape of dose response ([3]; 10, 50 and 200 mg doses): inverted-U-shaped dose response | overall AE profile [3, 4]: comparable to placebo | safety and tolerability [3, 4]: safe and well tolerated | serious adverse events (SAEs) [3, 4]: no SAEs | change in pain on walking (NRS) score from baseline [3, 5]: improvement | change in worst pain from baseline [3, 5]: improvement | most active dose level among the three doses tested (10, 50, 200 mg) ([3]; once daily for 4 weeks): 50 mg | separation from placebo on the primary endpoint (change in average daily pain) ([3]; patients not on a concomitant analgesic (n=148), 10, 50 or 200 mg by mouth once daily for 4 weeks): numeric, but not statistically significant, separation from placebo | pain alleviation ([3]; patients with DPN, after four weeks): meaningful pain alleviation | effects on change in average daily pain vs. placebo ([3]; patients with advanced DPN (DPN for ≥4 years, n=127; post-hoc analysis)): significant effects | insomnia severity (secondary endpoint) [3, 6]: Improvement | pain interference (secondary endpoint) [3, 6]: Improvement | pain severity (secondary endpoint) [3, 6]: Improvement | patient global impression of change (PGI-C) (secondary endpoint) [3, 6]: Improvement | quality of life (secondary endpoint) [3, 6]: Improvement | total pain score (secondary endpoint) [3, 6]: Improvement | effect of concomitant analgesic use on treatment benefit ([3]; patients with or without a concomitant analgesic): does not appear to affect treatment benefit | MMRM change in daily sleep interference ([3]; subjects not using analgesic (n=148), 50 mg dose, at the 3 and 4 week points): significance | separation from placebo on the primary endpoint (change in average daily pain) ([3]; total patient population (n=300), 10, 50 or 200 mg by mouth once daily for 4 weeks): numeric, but not statistically significant, separation from placebo
